Measurements reported in ChEMBL document CHEMBL5724806, “Unraveling interindividual differences and functional consequences of gut microbial metabolism of immunosuppressants” (2024).

Columns and labels:
Format in all cases: ADME
[1] = The drug is tested on Capnocytophaga ochracea strain: DSM7271 for biotransformation under anaerobic condition. The drug concentrations were measured over 6 timepoints collected between 0 and 12 hours of incubation by liquid-chromatography-coupled mass spectrometry (LC–MS); set-up: dose 5 uM, timepoint 0, 1.5, 3, 6, 9, 12 hours; conditions: 5 µM
[2] = The drug is tested on Gemella haemolysans strain: DSM107751 for biotransformation under anaerobic condition. The drug concentrations were measured over 6 timepoints collected between 0 and 12 hours of incubation by liquid-chromatography-coupled mass spectrometry (LC–MS); set-up: dose 5 uM, timepoint 0, 1.5, 3, 6, 9, 12 hours; conditions: 5 µM
[3] = The drug is tested on Lactobacillus reuteri strain: DSM20016 for biotransformation under anaerobic condition. The drug concentrations were measured over 6 timepoints collected between 0 and 12 hours of incubation by liquid-chromatography-coupled mass spectrometry (LC–MS); set-up: dose 5 uM, timepoint 0, 1.5, 3, 6, 9, 12 hours; conditions: limosilactobacillus reuteri, 5 µM
[4] = The drug is tested on Roseburia intestinalis strain: DSM14610 for biotransformation under anaerobic condition. The drug concentrations were measured over 6 timepoints collected between 0 and 12 hours of incubation by liquid-chromatography-coupled mass spectrometry (LC–MS); set-up: dose 5 uM, timepoint 0, 1.5, 3, 6, 9, 12 hours; conditions: 5 µM
[5] = The drug is tested on Streptococcus salivarius strain: DSM20560 for biotransformation under anaerobic condition. The drug concentrations were measured over 6 timepoints collected between 0 and 12 hours of incubation by liquid-chromatography-coupled mass spectrometry (LC–MS); set-up: dose 5 uM, timepoint 0, 1.5, 3, 6, 9, 12 hours; conditions: 5 µM
[6] = The drug is tested on Escherichia coli strain: DSM27469 for biotransformation under anaerobic condition. The drug concentrations were measured over 6 timepoints collected between 0 and 12 hours of incubation by liquid-chromatography-coupled mass spectrometry (LC–MS); set-up: dose 5 uM, timepoint 0, 1.5, 3, 6, 9, 12 hours; conditions: 5 µM
[7] = The drug is tested on Bifidobacterium longum strain: DSM20088 for biotransformation under microaerobic condition. The drug concentrations were measured over 6 timepoints collected between 0 and 12 hours of incubation by liquid-chromatography-coupled mass spectrometry (LC–MS); set-up: dose 5 uM, timepoint 0, 1.5, 3, 6, 9, 12 hours; conditions: 5 µM
[8] = The drug is tested on Lactobacillus paracasei strain: ATCC27092 for biotransformation under microaerobic condition. The drug concentrations were measured over 6 timepoints collected between 0 and 12 hours of incubation by liquid-chromatography-coupled mass spectrometry (LC–MS); set-up: dose 5 uM, timepoint 0, 1.5, 3, 6, 9, 12 hours; conditions: lacticaseibacillus paracasei, 5 µM
[9] = The drug is tested on Lactobacillus reuteri strain: DSM20016 for biotransformation under microaerobic condition. The drug concentrations were measured over 6 timepoints collected between 0 and 12 hours of incubation by liquid-chromatography-coupled mass spectrometry (LC–MS); set-up: dose 5 uM, timepoint 0, 1.5, 3, 6, 9, 12 hours; conditions: limosilactobacillus reuteri, 5 µM
[10] = The drug is tested on Streptococcus anginosus strain: DSM20563 for biotransformation under microaerobic condition. The drug concentrations were measured over 6 timepoints collected between 0 and 12 hours of incubation by liquid-chromatography-coupled mass spectrometry (LC–MS); set-up: dose 5 uM, timepoint 0, 1.5, 3, 6, 9, 12 hours; conditions: 5 µM
[11] = The drug is tested on Streptococcus salivarius strain: DSM20560 for biotransformation under microaerobic condition. The drug concentrations were measured over 6 timepoints collected between 0 and 12 hours of incubation by liquid-chromatography-coupled mass spectrometry (LC–MS); set-up: dose 5 uM, timepoint 0, 1.5, 3, 6, 9, 12 hours; conditions: 5 µM
[12] = The drug is tested on Streptococcus sanguinis strain: DSM20567 for biotransformation under microaerobic condition. The drug concentrations were measured over 6 timepoints collected between 0 and 12 hours of incubation by liquid-chromatography-coupled mass spectrometry (LC–MS); set-up: dose 5 uM, timepoint 0, 1.5, 3, 6, 9, 12 hours; conditions: 5 µM
[13] = The drug is tested on Escherichia coli strain: DSM27469 for biotransformation under microaerobic condition. The drug concentrations were measured over 6 timepoints collected between 0 and 12 hours of incubation by liquid-chromatography-coupled mass spectrometry (LC–MS); set-up: dose 5 uM, timepoint 0, 1.5, 3, 6, 9, 12 hours; conditions: 5 µM
[14] = The drug is tested on the gut metagenome community of A-06 with ENA study accession number: PRJEB31790 for biotransformation under anaerobic condition. The drug concentrations were measured over 7 timepoints collected between 0 and 12 hours of incubation by liquid-chromatography-coupled mass spectrometry (LC–MS); set-up: dose 5 uM, timepoint 0, 0.75, 1.5, 3, 6, 9, 12 hours; conditions: 5 µM
[15] = The drug is tested on the gut metagenome community of T-02 with ENA study accession number: PRJEB31790 for biotransformation under anaerobic condition. The drug concentrations were measured over 7 timepoints collected between 0 and 12 hours of incubation by liquid-chromatography-coupled mass spectrometry (LC–MS); set-up: dose 5 uM, timepoint 0, 0.75, 1.5, 3, 6, 9, 12 hours; conditions: 5 µM
[16] = The drug is tested on the gut metagenome community of T-03 with ENA study accession number: PRJEB31790 for biotransformation under anaerobic condition. The drug concentrations were measured over 7 timepoints collected between 0 and 12 hours of incubation by liquid-chromatography-coupled mass spectrometry (LC–MS); set-up: dose 5 uM, timepoint 0, 0.75, 1.5, 3, 6, 9, 12 hours; conditions: 5 µM
[17] = The drug is tested on the gut metagenome community of T-04 with ENA study accession number: PRJEB31790 for biotransformation under anaerobic condition. The drug concentrations were measured over 7 timepoints collected between 0 and 12 hours of incubation by liquid-chromatography-coupled mass spectrometry (LC–MS); set-up: dose 5 uM, timepoint 0, 0.75, 1.5, 3, 6, 9, 12 hours; conditions: 5 µM
[18] = The drug is tested on the gut metagenome community of A-02 with ENA study accession number: PRJEB31790 for biotransformation under microaerobic condition. The drug concentrations were measured over 7 timepoints collected between 0 and 12 hours of incubation by liquid-chromatography-coupled mass spectrometry (LC–MS); set-up: dose 5 uM, timepoint 0, 0.75, 1.5, 3, 6, 9, 12 hours; conditions: 5 µM
[19] = The drug is tested on the gut metagenome community of A-05 with ENA study accession number: PRJEB31790 for biotransformation under microaerobic condition. The drug concentrations were measured over 7 timepoints collected between 0 and 12 hours of incubation by liquid-chromatography-coupled mass spectrometry (LC–MS); set-up: dose 5 uM, timepoint 0, 0.75, 1.5, 3, 6, 9, 12 hours; conditions: 5 µM
[20] = The drug is tested on the gut metagenome community of P-02 with ENA study accession number: PRJEB31790 for biotransformation under microaerobic condition. The drug concentrations were measured over 7 timepoints collected between 0 and 12 hours of incubation by liquid-chromatography-coupled mass spectrometry (LC–MS); set-up: dose 5 uM, timepoint 0, 0.75, 1.5, 3, 6, 9, 12 hours; conditions: 5 µM
[21] = The drug is tested on the gut metagenome community of P-04 with ENA study accession number: PRJEB31790 for biotransformation under microaerobic condition. The drug concentrations were measured over 7 timepoints collected between 0 and 12 hours of incubation by liquid-chromatography-coupled mass spectrometry (LC–MS); set-up: dose 5 uM, timepoint 0, 0.75, 1.5, 3, 6, 9, 12 hours; conditions: 5 µM
[22] = The drug is tested on the gut metagenome community of T-01 with ENA study accession number: PRJEB31790 for biotransformation under microaerobic condition. The drug concentrations were measured over 7 timepoints collected between 0 and 12 hours of incubation by liquid-chromatography-coupled mass spectrometry (LC–MS); set-up: dose 5 uM, timepoint 0, 0.75, 1.5, 3, 6, 9, 12 hours; conditions: 5 µM
[23] = The drug is tested on the gut metagenome community of T-02 with ENA study accession number: PRJEB31790 for biotransformation under microaerobic condition. The drug concentrations were measured over 7 timepoints collected between 0 and 12 hours of incubation by liquid-chromatography-coupled mass spectrometry (LC–MS); set-up: dose 5 uM, timepoint 0, 0.75, 1.5, 3, 6, 9, 12 hours; conditions: 5 µM
[24] = The drug is tested on the gut metagenome community of T-03 with ENA study accession number: PRJEB31790 for biotransformation under microaerobic condition. The drug concentrations were measured over 7 timepoints collected between 0 and 12 hours of incubation by liquid-chromatography-coupled mass spectrometry (LC–MS); set-up: dose 5 uM, timepoint 0, 0.75, 1.5, 3, 6, 9, 12 hours; conditions: 5 µM
[25] = The drug is tested on the gut metagenome community of T-04 with ENA study accession number: PRJEB31790 for biotransformation under microaerobic condition. The drug concentrations were measured over 7 timepoints collected between 0 and 12 hours of incubation by liquid-chromatography-coupled mass spectrometry (LC–MS); set-up: dose 5 uM, timepoint 0, 0.75, 1.5, 3, 6, 9, 12 hours; conditions: 5 µM

Row | SMILES | Bacterial Biotransformation [1] | Bacterial Biotransformation [2] | Bacterial Biotransformation [3] | Bacterial Biotransformation [4] | Bacterial Biotransformation [5] | Bacterial Biotransformation [6] | Bacterial Biotransformation [7] | Bacterial Biotransformation [8] | Bacterial Biotransformation [9] | Bacterial Biotransformation [10] | Bacterial Biotransformation [11] | Bacterial Biotransformation [12] | Bacterial Biotransformation [13] | Bacterial Biotransformation [14] | Bacterial Biotransformation [15] | Bacterial Biotransformation [16] | Bacterial Biotransformation [17] | Bacterial Biotransformation [18] | Bacterial Biotransformation [19] | Bacterial Biotransformation [20] | other results
1 | C[C@]12C=CC(=O)C=C1CC[C@@H]1[C@@H]2C(=O)C[C@@]2(C)[C@H]1CC[C@]2(O)C(=O)CO [PREDNISONE] | Compound NOT metabolized | Compound NOT metabolized | Compound NOT metabolized | Compound NOT metabolized | Compound NOT metabolized | Compound NOT metabolized | Compound NOT metabolized | Compound NOT metabolized | Compound NOT metabolized | Compound NOT metabolized | Compound NOT metabolized | Compound NOT metabolized | Compound NOT metabolized | Compound metabolized | Compound metabolized | Compound NOT metabolized | Compound NOT metabolized | Compound metabolized | Compound metabolized | Compound metabolized | Bacterial Biotransformation [21]: Compound metabolized; Bacterial Biotransformation [22]: Compound metabolized; Bacterial Biotransformation [23]: Compound metabolized; Bacterial Biotransformation [24]: Compound NOT metabolized; Bacterial Biotransformation [25]: Compound NOT metabolized
2 | CNC(=C[N+](=O)[O-])NCCSCc1ccc(CN(C)C)o1 [RANITIDINE] | Compound NOT metabolized | Compound NOT metabolized | Compound NOT metabolized | Compound NOT metabolized | Compound NOT metabolized | Compound NOT metabolized | Compound NOT metabolized | Compound NOT metabolized | Compound NOT metabolized | Compound NOT metabolized | Compound NOT metabolized | Compound NOT metabolized | Compound NOT metabolized | Compound metabolized | Compound NOT metabolized | Compound NOT metabolized | Compound NOT metabolized | Compound metabolized | Compound NOT metabolized | Compound NOT metabolized | Bacterial Biotransformation [21]: Compound NOT metabolized; Bacterial Biotransformation [22]: Compound NOT metabolized; Bacterial Biotransformation [23]: Compound NOT metabolized; Bacterial Biotransformation [24]: Compound NOT metabolized; Bacterial Biotransformation [25]: Compound NOT metabolized
3 | CCC(C)(C)C(=O)O[C@H]1C[C@@H](C)C=C2C=C[C@H](C)[C@H](CC[C@@H]3C[C@@H](O)CC(=O)O3)[C@H]21 [SIMVASTATIN] | Compound NOT metabolized | Compound NOT metabolized | Compound NOT metabolized | Compound NOT metabolized | Compound NOT metabolized | Compound NOT metabolized | Compound NOT metabolized | Compound NOT metabolized | Compound NOT metabolized | Compound NOT metabolized | Compound NOT metabolized | Compound NOT metabolized | Compound NOT metabolized | Compound NOT metabolized | Compound NOT metabolized | Compound NOT metabolized | Compound NOT metabolized | Compound metabolized | Compound NOT metabolized | Compound NOT metabolized | Bacterial Biotransformation [21]: Compound NOT metabolized; Bacterial Biotransformation [22]: Compound NOT metabolized; Bacterial Biotransformation [23]: Compound NOT metabolized; Bacterial Biotransformation [24]: Compound NOT metabolized; Bacterial Biotransformation [25]: Compound NOT metabolized
